Laboratory results published in patent US20090165150A1, “DIRECTED COMPLEMENTATION WITH REMOVABLE GENE OF INTEREST” (priority 2007, published 2009).

Columns and labels:
[1] = system: DC tumors; assay: Xenograft of DC tumor cells (pL-Her2^YVMA complemented) in NCR nude mice maintained off doxycycline; format: in vivo, mouse; conditions: 5 mice bearing DC tumors, Tamoxifen IP for 8 consecutive days, observed up to a month, untreated group had tumors within 10 days
Method: Minced DC tumor was thawed at 37° C. and cells were dissociated by passing through cell strainers (100 μm filters, BD Falcon Cat. No. 352360). The cells were collected and centrifuged at 1000 rpm for 5 minutes, washed twice with PBS and counted using hemocytometer and resuspended in one part PBS (Gibco Cat. No. 24020-117) to one part Matrigel (BD Cat. No. 3542334) for injections.
(§1) Tamoxifen treatment: To activate CreER^T2 and induce Cre mediated recombination (i.e., excision) between loxP sites, animals were treated with 0.1 ml tamoxifen (10 mg/ml in corn oil) through intraperitoneal (IP) injection for […].
(§2) About 0.1 million DC tumor cells were injected subcutaneously into 10 NCR nude mice on the right flank. These mice were maintained off doxycycline. Similarly 10 NCR nude mice were inoculated with archived BHc tumor and maintained on doxycycline. These mice were divided into 4 groups.
The fourth group contained of 5 mice bearing DC tumors. They were treated with Tamoxifen for 8 consecutive days.

[2] = system: BHc tumors; assay: Xenograft of archived BHc tumor in NCR nude mice maintained on doxycycline; format: in vivo, mouse; conditions: 5 mice bearing BHc tumors, Tamoxifen IP for 8 consecutive days
Method: as §1, §2
The second group contained of 5 mice bearing BHc tumors. They were treated with Tamoxifen for 8 consecutive days.

CC/C(=C(\c1ccccc1)c1ccc(OCCN(C)C)cc1)c1ccccc1 [Tamoxifen, tamoxifen]
tumor formation [1]: Tumors were never observed
tumor growth compared with untreated group [2]: grew slower than group 1
time until tumors were observed ([2]; all 5 mice, untreated group within 10 days): ≤ 12 days
